From ChEMBL document CHEMBL4813969, “Design, synthesis and evaluation of 3-amide-5-aryl benzoic acid derivatives as novel P2Y14R antagonists with potential high efficiency against acute gouty arthritis” (Eur J Med Chem, 2021)
≈ marks a conversion by molar mass, not a printed value. Each block holds one compound with its values, some of them ahead of it. Calls of active or inactive are those of the source. No cut-off for these calls is given here.

Assays:
[1] = In vivo inhibition of MSU-induced pyroptosis in ICR mouse model of acute gout arthritis assessed as necrotic macrophage cells in foot tissue at 10 mg/kg, sc incubated for 24 hrs by caspase-1 and PI staining based flow cytometric analysis (reference value: 31.4 %); format: functional
[2] = Aqueous solubility of compound in PBS buffer at pH 7.4 incubated for overnight by UV-spectrometry; format: physicochemical
P2Y purinoceptor 14 = molecular target: T1, P2Y purinoceptor 14 (Homo sapiens, UniProt Q15391); assay: Antagonist activity at P2Y14 (unknown origin) expressed in HEK293 cells assessed as reduction in cAMP production incubated for 30 mins by ADP-glo assay; format: functional, cell-based
T1 sequence (Q15391 whole entry): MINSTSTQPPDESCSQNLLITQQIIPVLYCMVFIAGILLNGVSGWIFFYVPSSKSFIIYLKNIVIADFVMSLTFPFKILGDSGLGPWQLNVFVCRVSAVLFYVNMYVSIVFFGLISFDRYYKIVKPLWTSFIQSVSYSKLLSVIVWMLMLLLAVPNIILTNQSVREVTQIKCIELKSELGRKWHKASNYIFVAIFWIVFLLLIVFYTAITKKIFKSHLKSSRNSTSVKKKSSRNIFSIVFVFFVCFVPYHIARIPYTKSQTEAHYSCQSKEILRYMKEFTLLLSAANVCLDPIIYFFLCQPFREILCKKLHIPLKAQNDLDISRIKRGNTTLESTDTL

Mus musculus [3] = assay: Downregulation of MSU-induced caspase-1 P20 expression in foot tissue of MSU-induced acute gout arthritis ICR mouse model at 10 mg/kg, sc measured upto 24 hrs by Western blot analysis; format: functional, organism-based; details: time hrs <=24
[4] = Oral bioavailability in mouse at 10 mg/kg; format: ADME, organism-based; details: in vivo
[5] = Chemical stability of compound in DMSO; format: physicochemical
[6] = AUC in mouse at 10 mg/kg, po; format: ADME, organism-based; parameters: dose 10 mg/kg; details: in vivo
Mus musculus [7] = assay: Downregulation of MSU-induced ASC expression in foot tissue of MSU-induced acute gout arthritis ICR mouse model at 10 mg/kg, sc measured upto 24 hrs by Western blot analysis; format: functional, organism-based; details: time hrs <=24
[8] = Half life in mouse at 10 mg/kg, po; format: ADME, organism-based; details: in vivo
Mus musculus [9] = assay: Inhibition of MSU-induced GSDMD-NT level in foot tissue of MSU-induced acute gout arthritis ICR mouse model at 10 mg/kg, sc measured upto 24 hrs by Western blot analysis; format: functional, organism-based; details: time hrs <=24
[10] = Metabolic stability in human liver microsomes assessed as half life at […] incubated for 45 mins by LC-MS/MS analysis; format: ADME, Microsome
Mus musculus [11] = assay: Downregulation of MSU-induced NLRP3 expression in foot tissue of MSU-induced acute gout arthritis ICR mouse model at 10 mg/kg, sc measured upto 24 hrs by Western blot analysis; format: functional, organism-based; details: time hrs <=24
Mus musculus [12] = assay: Inhibition of MSU-induced IL-1beta level in foot tissue of MSU-induced acute gout arthritis ICR mouse model at 10 mg/kg, sc measured upto 24 hrs by Western blot analysis; format: functional, organism-based; details: time hrs <=24
[13] = Volume of distribution at steady state in mouse at 5 mg/kg, iv; format: ADME, organism-based; details: in vivo, read-out: Vdss
[14] = Half life in mouse at 5 mg/kg, iv; format: ADME, organism-based; details: in vivo
[15] = AUC in mouse at 5 mg/kg, iv; format: ADME, organism-based; parameters: dose 5 mg/kg; details: in vivo
Mus musculus [16] = assay: Antiarthritic activity against MSU-induced acute gout arthritis ICR mouse model assessed as reduction in infiltration of inflammatory cells at 10 mg/kg, sc measured upto 24 hrs; format: functional, organism-based; details: time hrs <=24
Mus musculus [17] = assay: Inhibition of MSU-induced IL-8 level in foot tissue of MSU-induced acute gout arthritis ICR mouse model at 10 mg/kg, sc measured upto 24 hrs by Western blot analysis; format: functional, organism-based; details: time hrs <=24
[18] = Tmax in mouse at 5 mg/kg, iv; format: ADME, organism-based; details: in vivo
[19] = molecular target: T2, P2Y purinoceptor 14 (Homo sapiens) (UniProt Q15391); details: time 30.0 min
T2 sequence (whole entry): T1 sequence (Q15391 whole entry)

[20] = Cmax in mouse at 10 mg/kg, po; format: ADME, organism-based; parameters: route oral, dose 10 mg/kg; details: in vivo
[21] = Clearance in mouse at 10 mg/kg, po; format: ADME, organism-based; details: in vivo
[22] = In vivo inhibition of MSU-induced pyroptosis in ICR mouse model of acute gout arthritis assessed as viable macrophage cells in foot tissue at 10 mg/kg, sc incubated for 24 hrs by caspase-1 and PI staining based flow cytometric analysis (reference value: 34.3 %); format: functional
[23] = Volume of distribution at steady state in mouse at 10 mg/kg, po; format: ADME, organism-based; details: in vivo
Mus musculus [24] = assay: Antiarthritic activity against MSU-induced acute gout arthritis ICR mouse model assessed as reduction in paw swelling at 10 mg/kg, sc measured upto 24 hrs; format: functional, organism-based; details: time hrs <=24
[25] = Cmax in mouse at 5 mg/kg, iv; format: ADME, organism-based; parameters: route intravenous, dose 5 mg/kg; details: in vivo
[26] = In vivo inhibition of MSU-induced pyroptosis in ICR mouse model of acute gout arthritis assessed as early apoptotic macrophage cells in foot tissue at 10 mg/kg, sc incubated for 24 hrs by caspase-1 and PI staining based flow cytometric analysis (reference value: 12.7 %); format: functional
[27] = In vivo inhibition of MSU-induced pyroptosis in ICR mouse model of acute gout arthritis assessed as late apoptotic macrophage cells in foot tissue at 10 mg/kg, sc incubated for 24 hrs by caspase-1 and PI staining based flow cytometric analysis (reference value: 21.6 %); format: functional
[28] = HEK293, filed as antagonist, dose 100.0 nM

Structure (SMILES): CC(=O)c1ccc(-c2cc(NC(=O)c3ccc(C)cc3)cc(C(=O)O)c2)s1
inhibition [19, 28]: 43.7%

Structure (SMILES): Cc1ccc(C(=O)Nc2cc(C(=O)O)cc(-c3cncnc3)c2)cc1
inhibition [19, 28]: 65.7%

Structure (SMILES): Cc1ccc(C(=O)Nc2cc(C(=O)O)cc(-c3cc[nH]n3)c2)cc1
IC50 (P2Y purinoceptor 14): 2.63 nM | Stabilty [5]: Unstable | inhibition [19, 28]: 86.8%

Structure (SMILES): O=C(O)c1cc(-c2ccc(C3CCNCC3)cc2)c2ccc(-c3ccc(C(F)(F)F)cc3)cc2c1 [PPTN]
inhibition in vivo at 10 mg/kg [1]: 11.1% | solubility [2]: < 5 µg/mL | Activity (Mus musculus [3]): Active | bioavailability [4]: 7% | Activity (Mus musculus [7]): Active | inhibition (Mus musculus [9]): Active | Activity (Mus musculus [11]): Active | inhibition (Mus musculus [12]): Active | Activity (Mus musculus [16]): Active | inhibition (Mus musculus [17]): Active | inhibition in vivo at 10 mg/kg [22]: 65.1% | Activity (Mus musculus [24]): Active | inhibition in vivo at 10 mg/kg [26]: 17.3% | inhibition in vivo at 10 mg/kg [27]: 6.41%

Structure (SMILES): Cc1ccc(C(=O)Nc2cc(C(=O)O)cc(-c3cnc(N)nc3)c2)cc1
inhibition [19, 28]: 68.6%

Structure (SMILES): Cc1ccc(C(=O)Nc2cc(C(=O)O)cc(-c3cccs3)c2)cc1
inhibition [19, 28]: 68.8%

Structure (SMILES): Cc1ccc(C(=O)Nc2cc(C(=O)O)cc(-c3ccc(C)o3)c2)cc1
inhibition ([19]; HEK293, dose 100.0 nM): 16.1%

Structure (SMILES): Cc1ccc(C(=O)Nc2cc(C(=O)O)cc(-c3c(C)noc3C)c2)cc1
IC50 (P2Y purinoceptor 14): 2.95 nM | Stabilty [5]: Unstable | inhibition [19, 28]: 82.3%

Structure (SMILES): COc1ncc(-c2cc(NC(=O)c3ccc(C)cc3)cc(C(=O)O)c2)cn1
inhibition [19, 28]: 72.5%

Structure (SMILES): Cc1ccc(C(=O)Nc2cc(C(=O)O)cc(-c3ccco3)c2)cc1
inhibition [19, 28]: 61.1%

Further lines, with some results ahead:

solubility [2]: 77.6 µg/mL (≈ 241 µM) | IC50 (P2Y purinoceptor 14): 2.18 nM | bioavailability [4]: 48.3% | Stabilty [5]: Stable | AUC [6]: 7280 ng·h/mL | half-life [8]: 2.56 h | half-life [10]: > 1 h | Vd [13]: 0.782 L/kg | half-life [14]: 2.32 h | AUC [15]: 843849 ng·min/mL | Tmax [18]: 5 min | inhibition [19, 28]: 93.4% | Cmax [20]: 1800 ng/mL | CL/F [21]: 6.03 mL/min/kg | Vdss [23]: 0.21267 L/kg | Cmax [25]: 19300 ng/mL
Structure (SMILES): Cc1ccc(C(=O)Nc2cc(C(=O)O)cc(-c3ccoc3)c2)cc1
inhibition in vivo at 10 mg/kg [1]: 33% | Activity (Mus musculus [3]): Active | Activity (Mus musculus [7]): Active | inhibition (Mus musculus [9]): Active | Activity (Mus musculus [11]): Active | inhibition (Mus musculus [12]): Active | Activity (Mus musculus [16]): Active | inhibition (Mus musculus [17]): Active | inhibition in vivo at 10 mg/kg [22]: 43.2% | Activity (Mus musculus [24]): Active | inhibition in vivo at 10 mg/kg [26]: 13% | inhibition in vivo at 10 mg/kg [27]: 10.9%

inhibition [19, 28]: 46%
Structure (SMILES): Cc1ccc(C(=O)Nc2cc(C(=O)O)cc(-c3ccc[nH]3)c2)cc1

inhibition [19, 28]: 79.1%
Structure (SMILES): COc1ccc(-c2cc(NC(=O)c3ccc(C)cc3)cc(C(=O)O)c2)cc1

inhibition [19, 28]: 79.1%
Structure (SMILES): Cc1ccc(C(=O)Nc2cc(C(=O)O)cc(-c3cccnc3)c2)cc1

bioavailability [4]: 6% | inhibition [19, 28]: 85.3%
Structure (SMILES): Cc1ccc(C(=O)Nc2cc(C(=O)O)cc(-c3ccc(C4CCNCC4)cc3)c2)cc1

solubility [2]: 46.3 µg/mL (≈ 140 µM) | IC50 (P2Y purinoceptor 14): 4.85 nM | inhibition [19, 28]: 87%
Structure (SMILES): Cc1ccc(C(=O)Nc2cc(C(=O)O)cc(-c3ccccc3)c2)cc1

IC50 (P2Y purinoceptor 14): 9.74 nM | inhibition [19, 28]: 83%
Structure (SMILES): Cc1ccc(C(=O)Nc2cc(C(=O)O)cc(-c3ccsc3)c2)cc1

inhibition [19, 28]: 72.1%
Structure (SMILES): Cc1ccc(C(=O)Nc2cc(C(=O)O)cc(-c3ccncc3)c2)cc1

inhibition [19, 28]: 60.2%
Structure (SMILES): Cc1ccc(C(=O)Nc2cc(C(=O)O)cc(-c3ccc(C)s3)c2)cc1
